Data taken from patent publication US6960337B2, “Methods and compositions for treating benign gynecological disorders” (Balance Pharmaceuticals, Inc., priority 2002, dated 2005).
“And” between values parts separate entries of the source, which are not always exact repeats. Equal entries are not always repeated. Where two headings read alike, the source gives them in different places.

Tests used:
[1] = cited from earlier work
[2] = tested on: premenopausal women with uterine leiomyomata; assay: Uterine size (uterine volume calculated from ultrasound dimensions), Example 2; format: in vivo, human
Description: (§1) A 12 week study was performed to establish an effective dose of deslorelin for controlling heavy bleeding secondary to uterine leiomyomata. Forty-one women completed the study and are identified as Subject Nos. 1-41. The women were divided into test groups for treatment with intranasal deslorelin as follows:
(§2) An intranasal preparation consisting of deslorelin at the indicated concentration along with sorbitol (61.6 mg/mL), benzalkonium chloride (0.1 mg/mL), and water was prepared according to the procedure of Example 1. The preparation was administered with a commercially available nasal sprayer that delivered a 50 μL spray volume. The preparation was administered by application of 50 μL to each nostril once per day, for a total daily spray volume of 100 μL to give the indicated dose of deslorelin.
(§3) The average age of the premenopausal patients was 42.3, with similar distribution among groups. For one complete menstrual cycle prior to treatment, each woman completed a daily bleeding calendar. Eligible subjects were then treated with deslorelin at the assigned dosage once per day by intranasal application. During the 12 weeks of daily intranasal administration, each woman kept a daily bleeding calendar, completed quality of life questionnaires, and underwent clinical assessment and laboratory testing. The subjects were tracked for 6 weeks post-treatment for further assessment and to document time to recovery of menses after last drug treatment day. Clinical assessments included grading of nasal irritation (Table 3A), determination of uterine size (Table 3B), and serum hormone levels (Table 3C).

[3] = tested on: ovarian estrogen and progesterone production; assay: Serum hormone levels, 12 week intranasal deslorelin study (Example 2); format: in vivo, human
Description: Testosterone levels are also similar.
as §1, §2, §3

[4] = tested on: heavy bleeding secondary to uterine leiomyomata; assay: Bleeding score from daily bleeding calendar (sum of 28 day diary entries; 0 no bleeding, 5 normal flow, 10 or greater menorrhagia), Example 2; format: in vivo, human
Description: as §1, §2, §3

[5] = tested on: ovarian suppression (serum estradiol and progesterone levels); format: in vivo, human; conditions: for Hormone Levels: Progesterone: daily, individual subjects
Description: Example 4 describes a study performed in support of the invention where the nasal preparation is similar to that of Example 1, comprised of a GnRH compound, estradiol, and testosterone, was administered to healthy, premenopausal women. Three doses of the GnRH compound deslorelin were tested, 0.5 mg, 1.0 mg, and 2.0 mg. The nasal preparation was administered using a conventional metered nasal spray delivery device. The subjects received two 50 μL sprays, one in each nostril, daily for four weeks. Blood samples were collected prior to drug administration on day 1 of the study, and then at regular intervals throughout day 1. Thereafter, blood samples were collected weekly, until day 29, when blood was collected at scheduled intervals throughout the day. Serum deslorelin, estradiol, testosterone, and progesterone were quantified, and the results are shown in Tables 4A through 4C, below in Example 4.
Nine premenopausal women, ages 20 to 45 years, were recruited and randomly divided into three test groups for a 29 day study. […] The single intranasal administration consisted of a 100 μL dose delivered using a metered nasal spray device as two 50 μL sprays, one in each nostril.
An indwelling intravenous catheter was inserted in an arm vein for withdrawal of blood samples prior to drug administration and at defined intervals post administration (study day 1) of 40, 120, 240, and 480 minutes. Thereafter, weekly blood samples (study days 8, 15, and 22) were collected for determination of serum estradiol, progesterone, testosterone, and deslorelin levels. On study day 29 post administration, blood samples were drawn according to the same regimen on study day 1. After collection, all blood samples were allowed to clot at room temperature, then refrigerated. Within 24 hours of collection, serum was separated and stored frozen at −5° C. until assayed.
Serum levels of estradiol, testosterone, and progesterone were quantitated by sensitive and specific radioimmunoassay methods (Stanczyk, F. Z. et al., Am. J Obstet. Gynecol., 159(6):1540 (1988); Scott et al., Am. J Obstet. Gynecol., 130(7):817 (1978)). Prior to assay of the steroid hormones, serum was extracted with ethyl acetate:hexane (1:1) and for the testosterone assay further purified via Celite™ column chromatography, with 40% toluene to elute the testosterone. Procedural losses were followed by addition of 1000 dpm of the appropriate tritiated internal standard. The sensitivities of the estradiol, testosterone, and progesterone assays were 8 pg/mL, 4 ng/dL, and 10 ng/dL, respectively. […] Intra- and inter-assay coefficients of variation were 5% to 10% and 10% to 15%, respectively. Specificity of the assays was enhanced by eliminating interfering metabolites with extraction and/or chromatography and through the use of highly specific antisera.

[6] = 0.5 mg/day intranasal, Baseline
[7] = 0.5 mg/day intranasal, End of Week 4
[8] = 0.5 mg/day intranasal, End of Week 8
[9] = 0.5 mg/day intranasal, End of Week 12
[10] = 1 mg/day intranasal, End of Week 4
[11] = 1 mg/day intranasal, End of Week 8
[12] = 1 mg/day intranasal, End of Week 12
[13] = 2 mg/day intranasal, End of Week 4
[14] = 2 mg/day intranasal, End of Week 8
[15] = 2 mg/day intranasal, End of Week 12
[16] = 0.5-2.0 mg daily intranasal over the 12 week period

Structure (SMILES): OC[C@H]1O[C@@H]2O[C@H]3[C@H](O)[C@@H](O)[C@@H](O[C@H]4[C@H](O)[C@@H](O)[C@@H](O[C@H]5[C@H](O)[C@@H](O)[C@@H](O[C@H]6[C@H](O)[C@@H](O)[C@@H](O[C@H]7[C@H](O)[C@@H](O)[C@@H](O[C@H]8[C@H](O)[C@@H](O)[C@@H](O[C@H]9[C@H](O)[C@@H](O)[C@@H](O[C@H]%10[C@H](O)[C@@H](O)[C@@H](O[C@H]1[C@H](O)[C@H]2O)O[C@@H]%10CO)O[C@@H]9CO)O[C@@H]8CO)O[C@@H]7CO)O[C@@H]6CO)O[C@@H]5CO)O[C@@H]4CO)O[C@@H]3CO [δ-cyclodextrin]
- water solubility (at 25° C., g/100 mL) [1]: 8.19 g/100 mL

Structure (SMILES): CCNC(=O)[C@@H]1CCCN1C(=O)[C@H](CCCN=C(N)N)NC(=O)[C@H](CC(C)C)NC(=O)[C@@H](Cc1c[nH]c2ccccc12)NC(=O)[C@H](Cc1ccc(O)cc1)NC(=O)[C@H](CO)NC(=O)[C@H](Cc1c[nH]c2ccccc12)NC(=O)[C@H](Cc1cnc[nH]1)NC(=O)[C@@H]1CCC(=O)N1 [deslorelin, (pyro)Pro-His-Trp-Ser-Tyr-DTrp-Leu-Arg-Pro-ethylamide]
- Uterine Size, Mean Difference (end of week 12 minus baseline uterine volume) ([2]; 0.5 mg/day intranasal): −109.6 cm^3
- Uterine Size, Mean Difference (end of week 12 minus baseline uterine volume) ([2]; 1 mg/day intranasal): −63.6 cm^3
- Uterine Size, Mean Difference (end of week 12 minus baseline uterine volume) ([2]; 2 mg/day intranasal): −246.5 cm^3
- uterine volume (summary in words) ([2]; 0.5, 1.0, 2.0 mg daily intranasal, 12 weeks, said to correlate directly with dose): reduction in uterine volume
- Hormone Levels: Estradiol [3, 6]: 173 pg/mL
- Hormone Levels: Progesterone [3, 6]: 641 ng/dL
- Hormone Levels: Testosterone [3, 6]: 24 ng/dL
- Hormone Levels: Estradiol [3, 7]: 47 pg/mL
- Hormone Levels: Progesterone [3, 7]: 40 ng/dL
- Hormone Levels: Testosterone [3, 7]: 19 ng/dL
- Hormone Levels: Estradiol [3, 8]: 79 pg/mL
- Hormone Levels: Progesterone [3, 8]: 30 ng/dL
- Hormone Levels: Testosterone [3, 8]: 22 ng/dL
- Hormone Levels: Estradiol [3, 9]: 66 pg/mL
- Hormone Levels: Progesterone [3, 9]: 37 ng/dL
- Hormone Levels: Testosterone [3, 9]: 23 ng/dL
- Hormone Levels: Estradiol ([3]; 1 mg/day intranasal, Baseline): 123 pg/mL
- Hormone Levels: Progesterone ([3]; 1 mg/day intranasal, Baseline): 480 ng/dL
- Hormone Levels: Testosterone ([3]; 1 mg/day intranasal, Baseline): 26 ng/dL
- Hormone Levels: Estradiol [3, 10]: 51 pg/mL
- Hormone Levels: Progesterone [3, 10]: 12 ng/dL
- Hormone Levels: Testosterone [3, 10]: 22 ng/dL
- Hormone Levels: Estradiol [3, 11]: 95 pg/mL
- Hormone Levels: Progesterone [3, 11]: 25 ng/dL
- Hormone Levels: Testosterone [3, 11]: 20 ng/dL
- Hormone Levels: Estradiol [3, 12]: 30 pg/mL
- Hormone Levels: Progesterone [3, 12]: 10 ng/dL
- Hormone Levels: Testosterone [3, 12]: 16 ng/dL
- Hormone Levels: Estradiol ([3]; 2 mg/day intranasal, Baseline): 184 pg/mL
- Hormone Levels: Progesterone ([3]; 2 mg/day intranasal, Baseline): 337 ng/dL
- Hormone Levels: Testosterone ([3]; 2 mg/day intranasal, Baseline): 34 ng/dL
- Hormone Levels: Estradiol [3, 13]: 14 pg/mL
- Hormone Levels: Progesterone [3, 13]: 12 ng/dL
- Hormone Levels: Testosterone [3, 13]: 16 ng/dL
- Hormone Levels: Estradiol [3, 14]: 31 pg/mL
- Hormone Levels: Progesterone [3, 14]: 14 ng/dL
- Hormone Levels: Testosterone [3, 14]: 20 ng/dL
- Hormone Levels: Estradiol [3, 15]: 30 pg/mL
- Hormone Levels: Progesterone [3, 15]: 13 ng/dL
- Hormone Levels: Testosterone [3, 15]: 20 ng/dL
- reduction in serum estradiol levels (summary in words) [3, 16]: progressive and dose dependent
- serum progesterone levels (summary in words) [3, 16]: progressive suppression with higher dose and longer time
- Bleeding Score ([4]; 0.5 mg/day intranasal, Baseline Score): 10.9
- Bleeding Score ([4]; 0.5 mg/day intranasal, Weeks 1-4): 6.6
- Bleeding Score ([4]; 0.5 mg/day intranasal, Weeks 5-8): 3.5
- Bleeding Score ([4]; 0.5 mg/day intranasal, Weeks 9-12): 2.6
- Bleeding Score ([4]; 1 mg/day intranasal, Baseline Score): 10.8
- Bleeding Score ([4]; 1 mg/day intranasal, Weeks 1-4): 7.8
- Bleeding Score ([4]; 1 mg/day intranasal, Weeks 5-8): 0.4
- Bleeding Score ([4]; 1 mg/day intranasal, Weeks 9-12): 1.7
- Bleeding Score ([4]; 2 mg/day intranasal, Baseline Score): 14.1
- Bleeding Score ([4]; 2 mg/day intranasal, Weeks 1-4): 6.6
- Bleeding Score ([4]; 2 mg/day intranasal, Weeks 5-8): 1.2
- Bleeding Score ([4]; 2 mg/day intranasal, Weeks 9-12): 0.6
- effectiveness (reduction of bleeding and uterine size), in words ([4]; all tested doses (0.5, 1.0, 2.0 mg)): partially or completely effective
- bleeding score (summary in words) ([4]; end of the three month study): marked improvement
- Hormone Levels: Progesterone ([5]; 0.5 mg/mL Deslorelin nasal preparation with estradiol and testosterone, Study Day 1, 0 min): 100 ng/dL and 90 ng/dL and 110 ng/dL
- Hormone Levels: Progesterone ([5]; 0.5 mg/mL Deslorelin nasal preparation with estradiol and testosterone, Study Day 8): 90 ng/dL and 50 ng/dL and 110 ng/dL
- Hormone Levels: Progesterone ([5]; 0.5 mg/mL Deslorelin nasal preparation with estradiol and testosterone, Study Day 15): 100 ng/dL and 40 ng/dL
- Hormone Levels: Progesterone ([5]; 0.5 mg/mL Deslorelin nasal preparation with estradiol and testosterone, Study Day 22): 40 ng/dL (2×) and 50 ng/dL
- Hormone Levels: Progesterone ([5]; 0.5 mg/mL Deslorelin nasal preparation with estradiol and testosterone, Study Day 29, 0 min): 100 ng/dL and 60 ng/dL and 70 ng/dL
- Hormone Levels: Progesterone ([5]; 1.0 mg/mL Deslorelin nasal preparation with estradiol and testosterone, Study Day 8): 50 ng/dL (2×) and 80 ng/dL
- Hormone Levels: Progesterone ([5]; 1.0 mg/mL Deslorelin nasal preparation with estradiol and testosterone, Study Day 15): 50 ng/dL and 30 ng/dL and 70 ng/dL
- Hormone Levels: Progesterone ([5]; 1.0 mg/mL Deslorelin nasal preparation with estradiol and testosterone, Study Day 22): 50 ng/dL (2×) and 60 ng/dL
- Hormone Levels: Progesterone ([5]; 1.0 mg/mL Deslorelin nasal preparation with estradiol and testosterone, Study Day 29, 0 min): 60 ng/dL and 40 ng/dL and 100 ng/dL
- Hormone Levels: Progesterone ([5]; 2.0 mg/mL Deslorelin nasal preparation with estradiol and testosterone, Study Day 1, 0 min): 80 ng/dL and 30 ng/dL and 90 ng/dL
- Hormone Levels: Progesterone ([5]; 2.0 mg/mL Deslorelin nasal preparation with estradiol and testosterone, Study Day 8): 50 ng/dL (2×) and 20 ng/dL
- Progesterone levels during the treatment interval ([5]; all three deslorelin doses, generally, indicating that women were anovulatory): less than 80 ng/dL
- Serum levels of estradiol on day 29 ([5]; in vivo): 0.014 to 0.103 ng/mL
